Consider 2 compounds from ChEMBL document CHEMBL4622979, “Non-rigid Diarylmethyl Analogs of Baloxavir as Cap-Dependent Endonuclease Inhibitors of Influenza Viruses” (J Med Chem, 2020).

Structures are written as SMILES.

The nature of data set [1]: Tmax in CD1 mouse small intestine assessed as baloxavir acid level at 15 mg/kg, po administered as single dose measured up to 24 hrs by LC-MS/MS analysis. It is filed as ADME, organism-based. Conditions: in vivo.
Data set [2] is described as follows: AUClast in CD1 mouse small intestine assessed as baloxavir acid level at 15 mg/kg, po administered as single dose measured up to 24 hrs by LC-MS/MS analysis. Format: ADME, organism-based. Particulars: in vivo.
The nature of data set [3]: Cmax in CD1 mouse small intestine assessed as baloxavir acid level at 15 mg/kg, po administered as single dose measured up to 24 hrs by LC-MS/MS analysis. Further details: dose 15 mg/kg, route oral. It is filed as ADME, organism-based. Particulars: in vivo.
The nature of data set [4]: MRTlast in CD1 mouse muscle assessed as baloxavir acid level at 15 mg/kg, po administered as single dose measured up to 24 hrs by LC-MS/MS analysis. Format: ADME, organism-based, Muscle tissue. Particulars: in vivo.
Data set [5] is described as follows: Elimination rate constant in CD1 mouse muscle assessed as (12aR)-12-(Diphenylmethyl)-7-hydroxy-3,4,12,12a-tetrahydro-1H-[1,4]oxazino[3,4-c]pyrido[2,1-f ][1,2,4]triazine-6,8-dione level at 15 mg/kg, po administered as single dose measured up to 24 hrs by LC-MS/MS analysis. It is filed as ADME, organism-based, Muscle tissue. Conditions: in vivo.
Data set [6] can be described thus: AUClast in CD1 mouse lung assessed as (12aR)-12-(Diphenylmethyl)-7-hydroxy-3,4,12,12a-tetrahydro-1H-[1,4]oxazino[3,4-c]pyrido[2,1-f ][1,2,4]triazine-6,8-dione level at 15 mg/kg, po administered as single dose by LC-MS/MS analysis. It is filed as ADME, organism-based. Conditions: in vivo.
A short description of data set [7]: Cytotoxicity against human PBMC cells assessed as reduction in cell viability by ATP bioluminescence assay. It is filed as cell-based.
A short description of data set [8]: Cmax in CD1 mouse kidney assessed as (12aR)-12-(Diphenylmethyl)-7-hydroxy-3,4,12,12a-tetrahydro-1H-[1,4]oxazino[3,4-c]pyrido[2,1-f ][1,2,4]triazine-6,8-dione level at 15 mg/kg, po administered as single dose measured up to 24 hrs by LC-MS/MS analysis. Further details: dose 15 mg/kg, route oral. It is filed as ADME, organism-based. Particulars: in vivo.
The nature of data set [9]: AUCinfinity in CD1 mouse trachea assessed as (12aR)-12-(Diphenylmethyl)-7-hydroxy-3,4,12,12a-tetrahydro-1H-[1,4]oxazino[3,4-c]pyrido[2,1-f ][1,2,4]triazine-6,8-dione level at 15 mg/kg, po administered as single dose measured up to 24 hrs by LC-MS/MS analysis. It is filed as ADME, organism-based. Further details: dose 15 mg/kg, route oral, time infinity. Conditions: in vivo.

A short description of data set [10]: Half life in CD1 mouse plasma assessed as (12aR)-12-(Diphenylmethyl)-7-hydroxy-3,4,12,12a-tetrahydro-1H-[1,4]oxazino[3,4-c]pyrido[2,1-f ][1,2,4]triazine-6,8-dione level at 15 mg/kg, po administered as single dose measured up to 24 hrs by LC-MS/MS analysis. Particulars: in vivo. It is filed as ADME, organism-based.
A short description of data set [11]: AUCinfinity in CD1 mouse kidney assessed as (12aR)-12-(Diphenylmethyl)-7-hydroxy-3,4,12,12a-tetrahydro-1H-[1,4]oxazino[3,4-c]pyrido[2,1-f ][1,2,4]triazine-6,8-dione level at 15 mg/kg, po administered as single dose measured up to 24 hrs by LC-MS/MS analysis. It is filed as ADME, organism-based. On the set-up: dose 15 mg/kg, time infinity, route oral. Particulars: in vivo.

A short description of data set [12]: Cmax in CD1 mouse heart assessed as (12aR)-12-(Diphenylmethyl)-7-hydroxy-3,4,12,12a-tetrahydro-1H-[1,4]oxazino[3,4-c]pyrido[2,1-f ][1,2,4]triazine-6,8-dione level at 15 mg/kg, po administered as single dose measured up to 24 hrs by LC-MS/MS analysis. On the set-up: dose 15 mg/kg, route oral. Conditions: in vivo. It is filed as ADME, organism-based.
The nature of data set [13]: AUClast in CD1 mouse small intestine assessed as (12aR)-12-(Diphenylmethyl)-7-hydroxy-3,4,12,12a-tetrahydro-1H-[1,4]oxazino[3,4-c]pyrido[2,1-f ][1,2,4]triazine-6,8-dione level at 15 mg/kg, po administered as single dose measured up to 24 hrs by LC-MS/MS analysis. It is filed as ADME, organism-based. Particulars: in vivo.
Data set [14] can be described thus: AUClast in CD1 mouse plasma assessed as (12aR)-12-(Diphenylmethyl)-7-hydroxy-3,4,12,12a-tetrahydro-1H-[1,4]oxazino[3,4-c]pyrido[2,1-f ][1,2,4]triazine-6,8-dione level at 15 mg/kg, po administered as single dose measured up to 24 hrs by LC-MS/MS analysis. Format: ADME, organism-based. On the set-up: dose 15 mg/kg, time < 24 hr, route oral. Particulars: in vivo.

A short description of data set [15]: Tmax in CD1 mouse liver assessed as (12aR)-12-(Diphenylmethyl)-7-hydroxy-3,4,12,12a-tetrahydro-1H-[1,4]oxazino[3,4-c]pyrido[2,1-f ][1,2,4]triazine-6,8-dione level at 15 mg/kg, po administered as single dose measured up to 24 hrs by LC-MS/MS analysis. Format: ADME, organism-based. Conditions: in vivo.
A short description of data set [16]: Half life in CD1 mouse small intestine assessed as (12aR)-12-(Diphenylmethyl)-7-hydroxy-3,4,12,12a-tetrahydro-1H-[1,4]oxazino[3,4-c]pyrido[2,1-f ][1,2,4]triazine-6,8-dione level at 15 mg/kg, po administered as single dose measured up to 24 hrs by LC-MS/MS analysis. Format: ADME, organism-based. Conditions: in vivo.
Data set [17] is described as follows: Half life in CD1 mouse liver assessed as (12aR)-12-(Diphenylmethyl)-7-hydroxy-3,4,12,12a-tetrahydro-1H-[1,4]oxazino[3,4-c]pyrido[2,1-f ][1,2,4]triazine-6,8-dione level at 15 mg/kg, po administered as single dose measured up to 24 hrs by LC-MS/MS analysis. It is filed as ADME, organism-based. Particulars: in vivo.
The nature of data set [18]: Ratio of AUClast in CD1 mouse lung to plasma assessed as (12aR)-12-(Diphenylmethyl)-7-hydroxy-3,4,12,12a-tetrahydro-1H-[1,4]oxazino[3,4-c]pyrido[2,1-f ][1,2,4]triazine-6,8-dione level at 15 mg/kg, po administered as single dose by LC-MS/MS analysis. It is filed as ADME, organism-based. Particulars: other tissue.
Data set [19] is described as follows: AUClast in CD1 mouse lung assessed as (12aR)-12-(Diphenylmethyl)-7-hydroxy-3,4,12,12a-tetrahydro-1H-[1,4]oxazino[3,4-c]pyrido[2,1-f ][1,2,4]triazine-6,8-dione level at 15 mg/kg, po administered as single dose measured up to 24 hrs by LC-MS/MS analysis. Particulars: in vivo. Format: ADME, organism-based.
A short description of data set [20]: AUClast in CD1 mouse liver assessed as (12aR)-12-(Diphenylmethyl)-7-hydroxy-3,4,12,12a-tetrahydro-1H-[1,4]oxazino[3,4-c]pyrido[2,1-f ][1,2,4]triazine-6,8-dione level at 15 mg/kg, po administered as single dose measured up to 24 hrs by LC-MS/MS analysis. It is filed as ADME, organism-based. Particulars: in vivo.
A short description of data set [21]: Ratio of AUClast in CD1 mouse brain to plasma assessed as (12aR)-12-(Diphenylmethyl)-7-hydroxy-3,4,12,12a-tetrahydro-1H-[1,4]oxazino[3,4-c]pyrido[2,1-f ][1,2,4]triazine-6,8-dione level at 15 mg/kg, po administered as single dose measured up to 24 hrs by LC-MS/MS analysis. It is filed as ADME, organism-based.
Data set [22] can be described thus: AUClast in CD1 mouse blood assessed as (12aR)-12-(Diphenylmethyl)-7-hydroxy-3,4,12,12a-tetrahydro-1H-[1,4]oxazino[3,4-c]pyrido[2,1-f ][1,2,4]triazine-6,8-dione level at 15 mg/kg, po administered as single dose measured up to 24 hrs by LC-MS/MS analysis. Format: ADME, organism-based. Particulars: in vivo.

As usually defined, the Tmax is the time at which the peak concentration occurs. One may read the Cmax as the maximum level reached in the sampled fluid or tissue. On to `COC(=O)OCOc1c2n(ccc1=O)N([C@@H]1c3ccccc3SCc3c1ccc(F)c3F)[C@@H]1COCCN1C2=O` [BALOXAVIR MARBOXIL], for which the Tmax in [1] was found to be 30 min. The AUClast in data set [2] worked out at 105778 ng·h/g. The Cmax in [3] was 53413 ng/g. Besides, in data set [4], the MRTlast worked out at 3.35 h.
Usually CC50 stands for the concentration at which the toxic effect on the cells reaches its halfway point. As to `COC(=O)OCOc1c2n(ccc1=O)N(C(c1ccccc1)c1ccccc1)[C@@H]1COCCN1C2=O`, in data set [5], the Kel was 0.4 h⁻¹. In addition, the AUClast worked out at 11923 ng·h/g in data set [6]; 43656 ng·h/g in data set [13]; 3287 ng·h/mL in data set [14]; 8320 ng·h/g in data set [19]; 34818 ng·h/g in [20]; 2746 ng·h/g in data set [22]. For the same compound, in data set [7], the CC50 is 100 µM. Besides, the Cmax was 5260 ng/g in data set [8] and 2537 ng/g in [12]. Further, the results for the AUC in data set [9] and in data set [11] were 10875 ng·h/g and 18087 ng·h/g, respectively. Further, the t1/2 came out at 1.58 h in [10], 1.28 h in data set [16] and 2.34 h in data set [17]. Also, the Tmax in data set [15] was determined as 30 min. The “Ratio AUC” value in data set [18] turned out to be 3; in data set [21], 0.19.
